Assay results as given in patent US9493486B2, “Diazaspirocycloalkane and azaspirocycloalkane” (Hoffmann-La Roche Inc., priority 2012, dated 2016).

Target: ATX (human His-tagged) (Homo sapiens (Human), UniProt Q13822)
Assay: Human ATX enzyme inhibition assay (fluorescence quenching, MR121 substrate)
Assay type: biochemical
Details: 30 nM ATX, 1 μM MR121 substrate, 30° C.
Excerpt: Human ATX Enzyme Inhibition Assay
Assay working solutions were made as follows:

| IC50 [nM] | SMILES |
| --- | --- |
| 5640 | N#Cc1cc(Cl)cc(COC(=O)N2CC3(CC(NC(=O)c4ccc5[nH]nnc5c4)C3)C2)c1 [Example 12.20, 6-[(1H-benzotriazole-5-carbonyl)-amino]-2-aza-spiro[3.3]heptane-2-carboxylic acid 3-chloro-5-cyano-benzyl ester] |
| 1250 | O=C(NC1CC2(C1)CN(C(=O)OCc1ccc(F)c(Cl)c1)C2)c1ccc2[nH]nnc2c1 [Example 12.21, 6-[(1H-benzotriazole-5-carbonyl)-amino]-2-aza-spiro[3.3]heptane-2-carboxylic acid 3-chloro-4-fluoro-benzyl ester] |
| 439 | O=C(OCc1ccc(C(F)(F)F)cc1)N1CCC2(CC1)CN(C(=O)c1ccc3[nH]c(=O)oc3c1)C2 [Example 12.22, 4-(trifluoromethyl)benzyl 2-(2-oxo-2,3-dihydrobenzo[d]oxazole-6-carbonyl)-2,7-diazaspiro[3.5]nonane-7-carboxylate] |
| 1910 | O=C(NC1CC2(C1)CN(C(=O)OCc1cc(F)cc(C(F)(F)F)c1)C2)c1ccc2[nH]nnc2c1 [Example 12.23, 6-[(1H-benzotriazole-5-carbonyl)-amino]-2-aza-spiro[3.3]heptane-2-carboxylic acid 3-fluoro-5-trifluoromethyl-benzyl ester] |
| 229 | Cc1ccc(COC(=O)N2CC3(CC(NC(=O)c4ccc5[nH]nnc5c4)C3)C2)cc1Cl [Example 12.24, 6-[(1H-benzotriazole-5-carbonyl)-amino]-2-aza-spiro[3.3]heptane-2-carboxylic acid 3-chloro-4-methyl-benzyl ester] |
| 92 | CS(=O)(=O)c1cc(COC(=O)N2CCC3(CC2)CN(C(=O)c2ccc4[nH]nnc4c2)C3)cc(C(F)(F)F)c1 [Example 12.25, 3-(methylsulfonyl)-5-(trifluoromethyl)benzyl 2-(1H-benzo[d][1,2,3]triazole-5-carbonyl)-2,7-diazaspiro[3.5]nonane-7-carboxylate] |
| 53 | CS(=O)(=O)c1cc(COC(=O)N2CCC3(CC2)CN(C(=O)c2ccc4[nH]c(=O)oc4c2)C3)cc(C(F)(F)F)c1 [Example 12.26, 3-(methylsulfonyl)-5-(trifluoromethyl)benzyl 2-(2-oxo-2,3-dihydrobenzo[d]oxazole-6-carbonyl)-2,7-diazaspiro[3.5]nonane-7-carboxylate] |
| 140 | CS(=O)(=O)c1cc(Cl)ccc1COC(=O)N1CCC2(CC1)CN(C(=O)c1ccc3[nH]nnc3c1)C2 [Example 12.27, 4-chloro-2-(methylsulfonyl)benzyl 2-(1H-benzo[d][1,2,3]triazole-5-carbonyl)-2,7-diazaspiro[3.5]nonane-7-carboxylate] |
| 138 | CS(=O)(=O)c1ccc(COC(=O)N2CCC3(CC2)CN(C(=O)c2ccc4[nH]nnc4c2)C3)c(Cl)c1 [Example 12.28, 2-chloro-4-(methylsulfonyl)benzyl 2-(1H-benzo[d][1,2,3]triazole-5-carbonyl)-2,7-diazaspiro[3.5]nonane-7-carboxylate] |
| 68.5 | O=C(NC1CC2(C1)CC(C(=O)Nc1ccc3[nH]nnc3c1)C2)OCc1cc(Cl)cc(Cl)c1 (centres unmarked) [Example 12.29, 3,5-dichlorobenzyl 6-(1H-benzo[d][1,2,3]triazol-5-ylcarbamoyl)spiro[3.3]heptan-2-ylcarbamate] |
| 1600 | O=C(OCc1cc(F)cc(OC(F)(F)F)c1)N1CCCC2(CCN(C(=O)c3ccc4[nH]nnc4c3)C2)C1 (centres unmarked) [Example 12.30, 3-fluoro-5-(trifluoromethoxy)benzyl 2-(1H-benzo[d][1,2,3]triazole-5-carbonyl)-2,7-diazaspiro[4.5]decane-7-carboxylate] |
| 22 | CS(=O)(=O)c1cc(Cl)cc(COC(=O)N2CCC3(CC2)CN(S(=O)(=O)c2ccc4[nH]c(=O)oc4c2)C3)c1 [Example 12.31, 3-chloro-5-(methylsulfonyl)benzyl 2-(2-oxo-2,3-dihydrobenzo[d]oxazol-6-ylsulfonyl)-2,7-diazaspiro[3.5]nonane-7-carboxylate] |

The remaining lines, values behind:

| SMILES | IC50 [nM] |
| --- | --- |
| O=C(c1ccc2[nH]nnc2c1)N1CC2(CCN(C(=O)N3Cc4ccc(Cl)cc4C3)CC2)C1 [Example 10, (2-(1H-Benzo[d][1,2,3]-triazole-5-carbonyl)-2,7-diazaspiro[3.5]nonan-7-yl)(5-chloroisoindolin-2-yl)methanone] | 3440 |
| O=C(OCc1ccccc1)N1CCC2(CC1)CC(Nc1ccc3[nH]c(=O)oc3c1)C2 [Example 11, Benzyl 2-(2-oxo-2,3-dihydrobenzo[d]oxazol-6-ylamino)-7-azaspiro[3.5]nonane-7-carboxylate] | 1290 |
| O=C(OCc1ccc(Cl)c(F)c1)N1CCC2(CC1)CN(C(=O)c1ccc3[nH]nnc3c1)C2 [Example 12, 4-Chloro-3-fluorobenzyl 2-(1H-benzo[d][1,2,3]triazole-5-carbonyl)-2,7-diazaspiro[3.5]nonane-7-carboxylate] | 130 |
| O=C(OCc1cc(Cl)nc(Cl)c1)N1CCC2(CC1)CN(C(=O)c1ccc3[nH]nnc3c1)C2 [Example 12.01, (2,6-dichloropyridin-4-yl)methyl 2-(1H-benzo[d][1,2,3]triazole-5-carbonyl)-2,7-diazaspiro[3.5]nonane-7-carboxylate] | 150 |
| O=C(OCc1ccc(Cl)c(Cl)c1)N1CCC2(CC1)CN(C(=O)c1ccc3[nH]nnc3c1)C2 [Example 12.02, 3,4-dichlorobenzyl 2-(1H-benzo[d][1,2,3]triazole-5-carbonyl)-2,7-diazaspiro[3.5]nonane-7-carboxylate] | 44 |
| O=C(OCc1cnc(Cl)c(Cl)c1)N1CCC2(CC1)CN(C(=O)c1ccc3[nH]nnc3c1)C2 [Example 12.03, (5,6-dichloropyridin-3-yl)methyl 2-(1H-benzo[d][1,2,3]triazole-5-carbonyl)-2,7-diazaspiro[3.5]nonane-7-carboxylate] | 622 |
| O=C(OCc1ccc(Cl)cc1Cl)N1CCC2(CC1)CN(C(=O)c1ccc3[nH]nnc3c1)C2 [Example 12.04, 2,4-dichlorobenzyl 2-(1H-benzo[d][1,2,3]triazole-5-carbonyl)-2,7-diazaspiro[3.5]nonane-7-carboxylate] | 17 |
| O=C(OCc1ccc(Cl)nc1)N1CCC2(CC1)CN(C(=O)c1ccc3[nH]nnc3c1)C2 [Example 12.05, (6-chloropyridin-3-yl)methyl 2-(1H-benzo[d][1,2,3]triazole-5-carbonyl)-2,7-diazaspiro[3.5]nonane-7-carboxylate] | 4980 |
| CS(=O)(=O)c1cc(COC(=O)N2CCC3(CC2)CN(C(=O)c2ccc4[nH]nnc4c2)C3)ccc1Cl [Example 12.06, 4-chloro-3-(methylsulfonyl)benzyl 2-(1H-benzo[d][1,2,3]triazole-5-carbonyl)-2,7-diazaspiro[3.5]nonane-7-carboxylate] | 7240 |
| CC(OC(=O)N1CCC2(CC1)CN(C(=O)c1ccc3[nH]nnc3c1)C2)c1cc(Cl)cc(Cl)c1 (centres unmarked) [Example 12.07, 1-(3,5-dichlorophenyl)ethyl 2-(1H-benzo[d][1,2,3]triazole-5-carbonyl)-2,7-diazaspiro[3.5]nonane-7-carboxylate] | 378 |
| O=C(OCc1cncc(Cl)c1)N1CCC2(CC1)CN(C(=O)c1ccc3[nH]nnc3c1)C2 [Example 12.08, (5-chloropyridin-3-yl)methyl 2-(1H-benzo[d][1,2,3]triazole-5-carbonyl)-2,7-diazaspiro[3.5]nonane-7-carboxylate] | 3830 |
| O=C(OCc1cncc(Br)c1)N1CCC2(CC1)CN(C(=O)c1ccc3[nH]nnc3c1)C2 [Example 12.09, (5-bromopyridin-3-yl)methyl 2-(1H-benzo[d][1,2,3]triazole-5-carbonyl)-2,7-diazaspiro[3.5]nonane-7-carboxylate] | 1640 |
| O=C(OCc1cc(Cl)cc(Cl)n1)N1CCC2(CC1)CN(C(=O)c1ccc3[nH]nnc3c1)C2 [Example 12.10, (4,6-dichloropyridin-2-yl)methyl 2-(1H-benzo[d][1,2,3]triazole-5-carbonyl)-2,7-diazaspiro[3.5]nonane-7-carboxylate] | 291 |
| O=C(OCc1ccc(F)c(Cl)c1)N1CCC2(CC1)CN(C(=O)c1ccc3[nH]nnc3c1)C2 [Example 12.11, 3-chloro-4-fluorobenzyl 2-(1H-benzo[d][1,2,3]triazole-5-carbonyl)-2,7-diazaspiro[3.5]nonane-7-carboxylate] | 168 |
| O=C(OCc1csc(Cl)c1)N1CCC2(CC1)CN(C(=O)c1ccc3[nH]nnc3c1)C2 [Example 12.12, (5-chlorothiophen-3-yl)methyl 2-(1H-benzo[d][1,2,3]triazole-5-carbonyl)-2,7-diazaspiro[3.5]nonane-7-carboxylate] | 332 |
| O=C(OCc1csc(Br)c1)N1CCC2(CC1)CN(C(=O)c1ccc3[nH]nnc3c1)C2 [Example 12.14, (5-bromothiophen-3-yl)methyl 2-(1H-benzo[d][1,2,3]triazole-5-carbonyl)-2,7-diazaspiro[3.5]nonane-7-carboxylate] | 270 |
| O=C(OCc1ccc(C(F)(F)F)cc1)N1CCC2(CC1)CN(C(=O)c1ccc3[nH]nnc3c1)C2 [Example 12.15, 4-(trifluoromethyl)benzyl 2-(1H-benzo[d][1,2,3]triazole-5-carbonyl)-2,7-diazaspiro[3.5]nonane-7-carboxylate] | 35 |
| O=C(OCc1cc(Cl)cc(Cl)c1)N1CCC2(CCN(C(=O)c3ccc4[nH]nnc4c3)C2)C1 (centres unmarked) [Example 12.16, 3,5-dichlorobenzyl 7-(1H-benzo[d][1,2,3]triazole-5-carbonyl)-2,7-diazaspiro[4.4]nonane-2-carboxylate] | 457 |
| O=C(NC1CC2(C1)CN(C(=O)OCc1cc(Cl)cc(OC(F)(F)F)c1)C2)c1ccc2[nH]nnc2c1 [Example 12.18, 6-[(1H-benzotriazole-5-carbonyl)-amino]-2-aza-spiro[3.3]heptane-2-carboxylic acid 3-chloro-5-trifluoromethoxy-benzyl ester] | 53.5 |
| O=C(NC1CC2(C1)CN(C(=O)OCc1cccc(C(F)(F)F)c1)C2)c1ccc2[nH]nnc2c1 [Example 12.19, 6-[(1H-benzotriazole-5-carbonyl)-amino]-2-aza-spiro[3.3]heptane-2-carboxylic acid 3-trifluoromethyl-benzyl ester] | 2150 |
